According to ChEMBL document CHEMBL1128993, “Optimization of retro-thiorphan for inhibition of endothelin converting enzyme” (Bioorg Med Chem Lett, 1996):

System: Endothelin-converting enzyme 1 (Sus scrofa)
Experiment: Compound was evaluated for inhibition of Endothelin converting enzyme-1 partially purified from porcine primary aortic endothelial cells at 20 uM
Conditions: Endothelial cell

| inhibition [%] | SMILES |
| --- | --- |
| 63 | O=C(Cc1ccccc1OCc1ccccc1)N[C@@H](CS)Cc1ccccc1 |

System: Endothelin-converting enzyme 1 (Sus scrofa)
Experiment: Inhibition of endothelin-converting enzyme 1 partially purified from porcine primary aortic endothelial cells at 20 uM
Conditions: Endothelial cell

| inhibition [%] | SMILES |
| --- | --- |
| 33 | O=C(N[C@@H](CS)Cc1ccccc1)C1Cc2ccccc2CN1 (some centres undefined) |
| 21 | CC(C)C[C@H](CS)NC(=O)c1cccnc1 |
| 10 | O=C(Cc1ccc(OCc2ccccc2)cc1)N[C@@H](CS)Cc1ccc2ccccc2c1 |
| > 20 | O=C(N[C@H](Cc1c[nH]c2ccccc12)C(=O)NCCS)c1cccnc1 |
| 76 | O=C(N[C@@H](CS)Cc1ccccc1)c1cc2ccccc2cn1 |
| 58 | O=C(Cc1cccnc1)N[C@@H](CS)Cc1ccccc1 |
| 23 | O=C(N[C@@H](CS)Cc1ccccc1)/C(=C/c1ccccc1)c1ccccc1 |
| 67 | O=C(N[C@@H](CS)Cc1ccccc1)c1c[nH]c2ccccc12 |
| 48 | O=C(N[C@@H](CS)Cc1ccccc1)c1ccncc1 |
| 52 | O=C(N[C@@H](CS)Cc1ccccc1)c1ccccn1 |
| 51 | O=C(Cc1ccc(OCc2ccccc2)cc1)N[C@@H](CS)Cc1cccc2ccccc12 |
| 16 | O=C(Cc1ccc(-c2ccccc2)cc1)N[C@@H](CS)CCc1ccccc1 |
| 56 | O=C(Cc1ccccc1)N[C@@H](CS)Cc1ccc(O)cc1 |
| 68 | Cn1cc(C[C@H](CS)NC(=O)Cc2ccc(-c3ccccc3)cc2)c2ccccc21 |
| 58 | O=C(Cc1ccccc1)N[C@@H](CS)Cc1ccccc1 |
| > 20 | O=C(Cc1ccc(OCc2ccccc2)cc1)N[C@H](Cc1c[nH]c2ccccc12)C(=O)N1CCC[C@@H]1CS |
| 15 | O=C(Cc1ccccc1)N[C@@H](CS)Cc1ccc(OCc2ccccc2)cc1 |

| inhibition [%] | SMILES |
| --- | --- |
| 66 | O=C(CCc1cccnc1)N[C@@H](CS)Cc1ccccc1 |
| 74 | O=C(Cc1ccc(-c2ccccc2)cc1)N[C@@H](CS)Cc1ccccc1 |
| 30 | CC(C)[C@H](CS)NC(=O)c1cccnc1 |
| 57 | O=C(CCc1ccccc1Cl)N[C@@H](CS)Cc1ccccc1 |
| 39 | O=C(N[C@@H](CS)Cc1ccc(-c2ccccc2)cc1)c1cccnc1 |
| 49 | O=C(CCc1ccccc1)N[C@@H](CS)Cc1ccccc1 |
| 58 | O=C(CCc1ccccc1O)N[C@@H](CS)Cc1ccccc1 |
| 24 | CN(C(=O)Cc1ccccc1)[C@@H](CS)Cc1ccccc1 |
| 54 | O=C(N[C@@H](CS)Cc1ccccc1)c1ccco1 |
| 36 | O=C(N[C@@H](CS)Cc1ccccc1)c1nccc2ccccc12 |
| 48 | O=C(CCC(C(=O)O)c1ccccc1)N[C@@H](CS)Cc1ccccc1 (some centres undefined) |
| 0 | O=C(N[C@@H](CS)Cc1ccccc1)[C@@H]1CCCN1 |
| 91 | O=C(Cc1ccc(-c2ccccc2)cc1)N[C@@H](CS)Cc1cccnc1 |
| 0 | O=C(Cc1ccc(OCc2ccccc2)cc1)N[C@@H](CS)Cc1ccc(-c2cccc3ccccc23)cc1 |
| > 20 | O=C(Cc1ccc(OCc2ccccc2)cc1)N[C@@H](CCS)Cc1c[nH]c2ccccc12 |
| 67 | O=C(N[C@@H](CS)Cc1ccccc1)c1cccs1 |
